According to publication PMC4893628, “Chalcone-based Selective Inhibitors of a C4 Plant Key Enzyme as Novel Potential Herbicides” (Scientific Reports, 2016):
Read-outs that look alike come from different tables or passages of the source.

Columns and labels:
Amaranthus retroflexus = test: In planta growth experiment, A. retroflexus; type: in vivo; conditions: shoots sprayed, 3 mM
Description: Seeds of Amaranthus retroflexus L. (Herbiseed, Twyford, UK) and Brassica napus L. cv. Mozart (Norddeutsche Pflanzenzucht Hans-Georg Lembke KG, Holtsee, Germany) were sown in vermiculite for germination. When cotyledons were fully expanded, seedlings were transplanted into plastic pots with a volume of 0.230 L filled with a substrate containing 50% bottom ash (0–4 mm), 30% peat and 20% pumice gravel (0–4 mm). Plants were watered every other day with 0.03% Hakaphos® Grün solution (Compo Expert GmbH, Münster, Germany) by sub-irrigation. Plants were grown in a climate chamber at 22 °C/20 °C day/night temperature and a day/night length of 16 h/8 h. Relative humidity was adjusted to 70% and light intensity was 320 μmol m^−2 s^−1 PAR (Photosynthetically Active Radiation) at plant level.
When seedlings reached the two-leaf growth stage, plant shoots were sprayed from the top with treatment solutions using spray bottles with a spraying angle of 35° (10 ml, neoLab Migge Laborbedarf-Vertriebs GmbH, Heidelberg, Germany). Treatment solutions were applied from a height of 8.5 cm above the pots. Each pot was sprayed once with a solution volume of 0.135 ml. Treatment solutions contained 2.4% (v/v) DMSO (dimethylsulfoxide, Duchefa Biochemie, Haarlem, the Netherlands), 0.1% (v/v) Tween® and the respective compound at a concentration of 3 mM. The control treatment contained 2.4% (v/v) DMSO, and 0.1% (v/v) Tween20. Further details are given in the Supplementary Information. […]
Experimental design and assessments of in planta experiments
We tested eleven compounds in a first experiment. In a follow-up experiment we tested selected […]
chalcone. Each treatment was repeated 12 times, except for oilseed rape in the second experiment (n=10). Pots were arranged in the growth chamber according to a fully randomized design. Initial growth of the second leaf of A. retroflexus plants was monitored by aquiring images of each plant from above from day zero to day two after treatment. Images were taken […]
from a fixed distance at 90° view angle using the camera Canon EOS 70D equipped with a Canon EF 14 mm/2.8 L II USM lens. Leaf area of single leaves was measured using the ImageJ software31, by drawing the leaf contours using a drawing tablet (Cintiq 22HD, Wacom Europe GmbH, Krefeld, Germany). Conversion of pixel to cm was achieved by using a target of known size inside the image. Six days after the treatment, half of the plants were harvested. Leaf area was assessed using a leaf area meter (LI3100C Area Meter, LI-Cor, Lincoln, Nebraska, USA) and samples were oven-dried at 65°C for seven days to obtain dry weight . Thirteen days after the treatment, this procedure was repeated with the second half of plants.
Chlorophyll fluorescence measurements […]
6 mm leaf discs were cut out of the second leaf and immediately placed into 96-well-plates filled with 300 µL 0.125 % Hoagland’s solution with 1 mM MES-KOH (MES-monohydrate, Merck, Darmstadt, Germany) buffered to a pH of 6.5. The treatment solution contained 1.6 % (v/v) DMSO, 0.1 % (v/v) Tween® 20 and 2',3',4',3,4-Pentahydroxychalcone at a concentration of 2 mM. The control treatment contained 1.6 % (v/v) DMSO, 0.1 % (v/v) Tween® 20. Each leaf disc was treated with 1.5 µL solution placed on top of the leaf discs. Plates were sealed with Parafilm and placed into a climate cabinet with 12h/12h day/night-length and a temperature of 22°C at a light intensity of 130 µmol m-2 s-1. 96 hours after treatment, chlorophyll fluorescence measurements were performed on leaf discs using an Imaging PAM M-Series fluorescence camera (Heinz Walz GmbH, Effeltrich, Germany). Leaf discs were dark adapted for 30 minutes, minimum and maximum chlorophyll fluorescence were obtained and leaf discs were illuminated for 30 minutes

[1] = test system: Corynebacterium glutamicum ATCC13032; test: Bacterial growth in microscale cultivation, C. glutamicum; type: cell-based; conditions: relative to control; for activity at 0.4 µM / activity at 4 µM / activity at 40 µM: Corynebacterium glutamicum
Description: (§1) The following bacteria were cultivated in the presence of trans-chalcone derived inhibitors: Corynebacterium glutamicum ATCC13032[43], Escherichia coli K-12 MG1655[44], Pseudomonas putida KT2440[45], and Bacillus subtilis 168[46]. The growth of these bacteria was monitored in flower-well plates shaken at 1200 rpm as backscatter at 620 nm (gain 20) using a BioLector® microscale cultivation system (m2p labs, Baesweiler, Germany). For further experimental details please refer to the Supplementary Information.
(§2) medium or the appropriate minimal medium and shaken at 140 rpm overnight. For inoculation of
(§3) the main culture, cells equivalent to an optical density at 600 nm of 0.5 (C. glutamicum, E. coli,
(§4) and P. putida) or 0.25 (B. subtilis) in 800 µL medium were washed and resuspended in fresh
(§5) media. Inhibitor substances were dissolved in DMSO and added to the media to a final
(§6) Since the least polar trans-chalcone and 2’-hydroxychalcone precipitated in the growth media at
(§7) the highest concentrations, the maximal concentration of these compounds was reduced to 400
(§8) µM and 100 µM, respectively. The final backscatter at 620 nm, the growth rate (h-1), and the
(§9) duration of the lag phase of all cultures were determined in a BioLector microscale cultivation
(§10) system in comparison to negative controls supplemented with the solvent DMSO. A longer lag

[2] = test system: Escherichia coli K-12 MG1655; test: Bacterial growth in microscale cultivation, E. coli; type: cell-based; conditions: relative to control; for activity at 0.4 µM / activity at 4 µM / activity at 40 µM: Escherichia coli
Description: as §1, §2, §3, §4, §5, §6, §7, §8, §9, §10

O=C(/C=C/c1ccc(O)c(O)c1)c1ccc(O)cc1O [Compound 8, 2′,4′,3,4-Tetrahydroxy-chalcone] was tested, and the Influence on plants (Amaranthus retroflexus) was “No”, the activity at 0.4 µM ([1]; ATCC13032, complex medium, 0.4 µM, read-out: Final Backscatter) was 96.6% and the activity at 0.4 µM ([1]; ATCC13032, complex medium, 0.4 µM, read-out: Growth rate) was 114%. For the same compound, the activity at 4 µM ([1]; ATCC13032, complex medium, 4 µM, read-out: Final Backscatter) was 107%, the activity at 4 µM ([1]; ATCC13032, complex medium, 4 µM, read-out: Growth rate) was 134% and the activity at 40 µM ([1]; ATCC13032, complex medium, 40 µM, read-out: Final Backscatter) was 108%. For the same compound, the activity at 40 µM ([1]; ATCC13032, complex medium, 40 µM, read-out: Growth rate) was 129%, the activity at 0.4 µM ([1]; ATCC13032, minimal medium, 0.4 µM, read-out: Final Backscatter) was 99% and the activity at 0.4 µM ([1]; ATCC13032, minimal medium, 0.4 µM, read-out: Growth rate) was 103%. It also gave an activity at 4 µM ([1]; ATCC13032, minimal medium, 4 µM, read-out: Final Backscatter) of 101%, an activity at 4 µM ([1]; ATCC13032, minimal medium, 4 µM, read-out: Growth rate) of 96.6% and an activity at 40 µM ([1]; ATCC13032, minimal medium, 40 µM, read-out: Final Backscatter) of 103%. The activity at 40 µM ([1]; ATCC13032, minimal medium, 40 µM, read-out: Growth rate) was 102%, the “Lag Phase” value ([1]; complex medium, 0.4 µM) was 109,9% and the “Lag Phase” value ([1]; complex medium, 4 µM) was 95,4%. For the same compound, the “Lag Phase” value ([1]; complex medium, 40 µM) was 84,9%, the “Lag Phase” value ([1]; minimal medium, 0.4 µM) was 99,3% and the “Lag Phase” value ([1]; minimal medium, 4 µM) was 98,6%. For the same compound, the “Lag Phase” value ([1]; minimal medium, 40 µM) was 100,7%, the activity at 0.4 µM ([2]; MG1655, complex medium, 0.4 µM, read-out: Final Backscatter) was 98.9% and the activity at 0.4 µM ([2]; MG1655, complex medium, 0.4 µM, read-out: Growth rate) was 102%. For the same compound, the activity at 4 µM ([2]; MG1655, complex medium, 4 µM, read-out: Final Backscatter) was 102%, the activity at 4 µM ([2]; MG1655, complex medium, 4 µM, read-out: Growth rate) was 95% and the activity at 40 µM ([2]; MG1655, complex medium, 40 µM, read-out: Final Backscatter) was 95.7%. It also gave an activity at 40 µM ([2]; MG1655, complex medium, 40 µM, read-out: Growth rate) of 89.4%, an activity at 0.4 µM ([2]; MG1655, minimal medium, 0.4 µM, read-out: Final Backscatter) of 92.9% and an activity at 0.4 µM ([2]; MG1655, minimal medium, 0.4 µM, read-out: Growth rate) of 83.9%. It also gave an activity at 4 µM ([2]; MG1655, minimal medium, 4 µM, read-out: Final Backscatter) of 94.1%, an activity at 4 µM ([2]; MG1655, minimal medium, 4 µM, read-out: Growth rate) of 86.4% and an activity at 40 µM ([2]; MG1655, minimal medium, 40 µM, read-out: Final Backscatter) of 96.6%. For the same compound, the activity at 40 µM ([2]; MG1655, minimal medium, 40 µM, read-out: Growth rate) was 85.3%, the “Lag Phase” value ([2]; complex medium, 0.4 µM) was 103,3% and the “Lag Phase” value ([2]; complex medium, 4 µM) was 96,7%. For the same compound, the “Lag Phase” value ([2]; complex medium, 40 µM) was 100,0%, the “Lag Phase” value ([2]; minimal medium, 0.4 µM) was 96,2% and the “Lag Phase” value ([2]; minimal medium, 4 µM) was 98,1%. For the same compound, the “Lag Phase” value ([2]; minimal medium, 40 µM) was 98,1%.
